In ChEMBL document CHEMBL5543097, “Synthesis and structure-activity relationships of novel 14-membered 2-fluoro ketolides with structural modification at the C11 position” (Eur J Med Chem, 2024):
Converted amounts (≈) assume the structure as drawn. The source made the active and inactive calls. The calls are words filed in the database; no cut-off is given here.

How the values were obtained:
[1] = tested on: Staphylococcus epidermidis; assay: Antibacterial activity against erythromycin-resistant Staphylococcus epidermidis 19-5 assessed as inhibition of visible bacterial growth incubated for 18 hrs by broth microdilution method; assay type: functional
Haemophilus influenzae [2] = assay: Antibacterial activity against Haemophilus influenzae HIN 19-15 assessed as inhibition of bacterial growth incubated for 20 to 24 hrs by CLSI based broth microdilution method; assay type: functional; settings: time 20-24 hrs
Haemophilus influenzae [3] = assay: Antibacterial activity against Haemophilus influenzae HIN 20-18 assessed as inhibition of bacterial growth incubated for 20 to 24 hrs by CLSI based broth microdilution method; assay type: functional; settings: time 20-24 hrs
Streptococcus pneumoniae [4] = assay: Antibacterial activity against erythromycin-resistant Streptococcus pneumoniae SPN19-8 assessed as inhibition of visible bacterial growth incubated for 18 hrs by broth microdilution method; assay type: functional
[5] = tested on: Staphylococcus epidermidis; assay: Antibacterial activity against erythromycin-resistant Staphylococcus epidermidis 19-9 assessed as inhibition of visible bacterial growth incubated for 18 hrs by broth microdilution method; assay type: functional
Haemophilus influenzae [6] = assay: Antibacterial activity against Haemophilus influenzae HIN 19-18 assessed as inhibition of bacterial growth incubated for 20 to 24 hrs by CLSI based broth microdilution method; assay type: functional; settings: HIN 19-18, time 20-24 hrs
[7] = Metabolic stability in human liver microsome assessed as parent compound remaining in presence of NADPH measured at 60 mins by LC-MS/MS analysis; assay type: ADME; settings: liver microsomes, read-out: Stability
Moraxella catarrhalis [8] = assay: Antibacterial activity against Moraxella catarrhalis BCA 19-31 assessed as inhibition of bacterial growth incubated for 24 hrs by CLSI based broth microdilution method; assay type: functional; settings: BCA 19-31, 24 h
Streptococcus pneumoniae [9] = assay: Antibacterial activity against erythromycin-resistant Streptococcus pneumoniae SPN19-14 assessed as inhibition of visible bacterial growth incubated for 18 hrs by broth microdilution method; assay type: functional
Streptococcus pneumoniae [10] = assay: Antibacterial activity against erythromycin-resistant Streptococcus pneumoniae SPN19-13 assessed as inhibition of visible bacterial growth incubated for 18 hrs by broth microdilution method; assay type: functional
Moraxella catarrhalis [11] = assay: Antibacterial activity against Moraxella catarrhalis BCA 19-5 assessed as inhibition of bacterial growth incubated for 24 hrs by CLSI based broth microdilution method; assay type: functional; settings: Moraxella catarrhalis, BCA 19-5, 24 h, read-out: MIC
[12] = Metabolic stability in human liver microsome assessed as parent compound remaining in absence of NADPH measured at 60 mins by LC-MS/MS analysis; assay type: ADME; settings: liver microsomes, read-out: Stability
[13] = tested on: Staphylococcus epidermidis; assay: Antibacterial activity against erythromycin-resistant Staphylococcus epidermidis 19-6 assessed as inhibition of visible bacterial growth incubated for 18 hrs by broth microdilution method; assay type: functional
[14] = Metabolic stability in human liver microsome assessed as intrinsic clearance measured at 60 mins by LC-MS/MS analysis; assay type: ADME; settings: liver microsomes, read-out: CLH
Moraxella catarrhalis [15] = assay: Antibacterial activity against Moraxella catarrhalis BCA 19-6 assessed as inhibition of bacterial growth incubated for 24 hrs by CLSI based broth microdilution method; assay type: functional; settings: Moraxella catarrhalis, BCA 19-6, 24 h, read-out: MIC
[16] = Metabolic stability in human liver microsome assessed as half life measured at 60 mins by LC-MS/MS analysis; assay type: ADME; settings: liver microsomes
[17] = Cytotoxicity against mouse AML12 cells assessed as reduction in cell viability incubated for 48 hrs by MTT assay; assay type: toxicity, cell-based
[18] = tested on: Staphylococcus epidermidis; assay: Antibacterial activity against erythromycin-resistant Staphylococcus epidermidis 19-8 assessed as inhibition of visible bacterial growth incubated for 18 hrs by broth microdilution method; assay type: functional
Streptococcus agalactiae [19] = assay: Antibacterial activity against erythromycin-resistant Streptococcus agalactiae 19-9 assessed as inhibition of visible bacterial growth incubated for 18 hrs by broth microdilution method; assay type: functional
Streptococcus pyogenes = assay: Antibacterial activity against erythromycin-resistant Streptococcus pyogenes ATCC 19615 assessed as inhibition of visible bacterial growth incubated for 18 hrs by broth microdilution method; assay type: functional
[20] = tested on: Staphylococcus epidermidis; assay: Antibacterial activity against erythromycin-resistant Staphylococcus epidermidis 19-4 assessed as inhibition of visible bacterial growth incubated for 18 hrs by broth microdilution method; assay type: functional
[21] = tested on: Staphylococcus epidermidis; assay: Antibacterial activity against erythromycin-resistant Staphylococcus epidermidis 19-11 assessed as inhibition of visible bacterial growth incubated for 18 hrs by broth microdilution method; assay type: functional
Streptococcus agalactiae [22] = assay: Antibacterial activity against erythromycin-resistant Streptococcus agalactiae 19-8 assessed as inhibition of visible bacterial growth incubated for 18 hrs by broth microdilution method; assay type: functional
Escherichia coli = assay: Antibacterial activity against Escherichia coli ATCC 35218 assessed as inhibition of visible bacterial growth; assay type: functional, organism-based
Streptococcus pneumoniae [23] = assay: Potency index, ratio of telithromycin MIC to test compound MIC for antibacterial activity against Streptococcus pneumoniae SPN19-13 assessed as inhibition of visible bacterial growth incubated for 18 hrs by broth microdilution method; assay type: functional
[24] = tested on: Staphylococcus epidermidis; assay: Potency index, ratio of telithromycin MIC to test compound MIC for antibacterial activity against erythromycin-resistant Staphylococcus epidermidis 19-11 assessed as inhibition of visible bacterial growth incubated for 18 hrs by broth microdilution method; assay type: functional
[25] = tested on: Staphylococcus epidermidis; assay: Potency index, ratio of telithromycin MIC to test compound MIC for antibacterial activity against erythromycin-resistant Staphylococcus epidermidis 19-5 assessed as inhibition of visible bacterial growth incubated for 18 hrs by broth microdilution method; assay type: functional
Streptococcus pneumoniae [26] = assay: Potency index, ratio of telithromycin MIC to test compound MIC for antibacterial activity against Streptococcus pneumoniae SPN19-8 assessed as inhibition of visible bacterial growth incubated for 18 hrs by broth microdilution method; assay type: functional
[27] = tested on: Staphylococcus epidermidis; assay: Potency index, ratio of telithromycin MIC to test compound MIC for antibacterial activity against erythromycin-resistant Staphylococcus epidermidis 19-4 assessed as inhibition of visible bacterial growth incubated for 18 hrs by broth microdilution method; assay type: functional
[28] = tested on: Staphylococcus epidermidis; assay: Potency index, ratio of telithromycin MIC to test compound MIC for antibacterial activity against erythromycin-resistant Staphylococcus epidermidis 19-6 assessed as inhibition of visible bacterial growth incubated for 18 hrs by broth microdilution method; assay type: functional
[29] = tested on: Staphylococcus epidermidis; assay: Potency index, ratio of telithromycin MIC to test compound MIC for antibacterial activity against erythromycin-resistant Staphylococcus epidermidis 19-9 assessed as inhibition of visible bacterial growth incubated for 18 hrs by broth microdilution method; assay type: functional
[30] = tested on: Staphylococcus epidermidis; assay: Potency index, ratio of telithromycin MIC to test compound MIC for antibacterial activity against erythromycin-resistant Staphylococcus epidermidis 19-8 assessed as inhibition of visible bacterial growth incubated for 18 hrs by broth microdilution method; assay type: functional
Streptococcus pneumoniae [31] = assay: Potency index, ratio of telithromycin MIC to test compound MIC for antibacterial activity against Streptococcus pneumoniae SPN19-14 assessed as inhibition of visible bacterial growth incubated for 18 hrs by broth microdilution method; assay type: functional

## CC[C@H]1OC(=O)[C@@](C)(F)C(=O)[C@H](C)[C@@H](O[C@@H]2O[C@H](C)C[C@H](N(C)C)[C@H]2O)[C@](C)(OC)C[C@@H](C)C(=O)[C@H](C)[C@H]2N(CCCOC(=O)Nc3c(C)noc3C)C(=O)O[C@]12C
[1]
  MIC: 0.03 µg/mL (≈ 0.0363 µM)
Haemophilus influenzae [2]
  MIC: 1 µg/mL (≈ 1.21 µM)
Haemophilus influenzae [3]
  MIC: 8 µg/mL (≈ 9.67 µM)
Streptococcus pneumoniae [4]
  MIC: 0.25 µg/mL (≈ 0.302 µM)
[5]
  MIC: 0.5 µg/mL (≈ 0.605 µM)
Haemophilus influenzae [6]
  MIC: 1 µg/mL (≈ 1.21 µM)
[7]
  remaining at 1 h: 26.6%
Moraxella catarrhalis [8]
  MIC: 0.125 µg/mL (≈ 0.151 µM)
Streptococcus pneumoniae [9]
  MIC: 0.25 µg/mL (≈ 0.302 µM)
Streptococcus pneumoniae [10]
  MIC: 0.25 µg/mL (≈ 0.302 µM)
Moraxella catarrhalis [11]
  MIC: 0.5 µg/mL (≈ 0.605 µM)
[12]
  remaining at 1 h: 101%
[13]
  MIC: 0.25 µg/mL (≈ 0.302 µM)
[14]
  microsomal CLint: 37.3 µL/min/mg
Moraxella catarrhalis [15]
  MIC: 0.5 µg/mL (≈ 0.605 µM)
[16]
  half-life: 37.2 min
[17]
  CC50 at 48 h: > 100 µM
[18]
  MIC: 0.25 µg/mL (≈ 0.302 µM)
Streptococcus agalactiae [19]
  MIC: 4 µg/mL (≈ 4.84 µM)
Streptococcus pyogenes
  MIC: < 0.03 µg/mL
[20]
  MIC: 0.25 µg/mL (≈ 0.302 µM)
[21]
  MIC: 0.125 µg/mL (≈ 0.151 µM)

## CC[C@H]1OC(=O)[C@@](C)(F)C(=O)[C@H](C)[C@@H](O[C@@H]2O[C@H](C)C[C@H](N(C)C)[C@H]2O)[C@](C)(OC)C[C@@H](C)C(=O)[C@H](C)[C@H]2N(CCCOC(=O)Nc3cccc(C)c3)C(=O)O[C@]12C
[1]
  MIC: < 0.03 µg/mL
Streptococcus agalactiae [22]
  MIC: < 0.03 µg/mL
Haemophilus influenzae [2]
  MIC: 8 µg/mL (≈ 9.73 µM)
Streptococcus pneumoniae [4]
  MIC: 0.125 µg/mL (≈ 0.152 µM)
[5]
  MIC: 0.06 µg/mL (≈ 0.073 µM)
Haemophilus influenzae [6]
  MIC: 8 µg/mL (≈ 9.73 µM)
[7]
  remaining at 1 h: 1.2%
Moraxella catarrhalis [8]
  MIC: < 0.03 µg/mL
Streptococcus pneumoniae [9]
  MIC: < 0.03 µg/mL
Streptococcus pneumoniae [10]
  MIC: < 0.03 µg/mL
Moraxella catarrhalis [11]
  MIC: < 0.03 µg/mL
[12]
  remaining at 1 h: 97.5%
[13]
  MIC: 0.03 µg/mL (≈ 0.0365 µM)
[14]
  microsomal CLint: 266 µL/min/mg
Moraxella catarrhalis [15]
  MIC: < 0.03 µg/mL
[16]
  half-life: 5.2 min
[17]
  CC50 at 48 h: 76.8 µM
[18]
  MIC: < 0.03 µg/mL
Streptococcus agalactiae [19]
  MIC: 0.06 µg/mL (≈ 0.073 µM)
Streptococcus pyogenes
  MIC: < 0.03 µg/mL
[20]
  MIC: < 0.03 µg/mL
[21]
  MIC: < 0.03 µg/mL

## CC[C@H]1OC(=O)[C@@](C)(F)C(=O)[C@H](C)[C@@H](O[C@@H]2O[C@H](C)C[C@H](N(C)C)[C@H]2O)[C@](C)(OC)C[C@@H](C)C(=O)[C@H](C)[C@H]2N(CCCOC(=O)Nc3ccccc3[N+](=O)[O-])C(=O)O[C@]12C
[1]
  MIC: 0.125 µg/mL (≈ 0.147 µM)
Streptococcus agalactiae [22]
  MIC: < 0.03 µg/mL
Haemophilus influenzae [2]
  MIC: 8 µg/mL (≈ 9.38 µM)
Streptococcus pneumoniae [4]
  MIC: 1 µg/mL (≈ 1.17 µM)
[5]
  MIC: 0.25 µg/mL (≈ 0.293 µM)
Haemophilus influenzae [6]
  MIC: 8 µg/mL (≈ 9.38 µM)
Moraxella catarrhalis [8]
  MIC: 0.125 µg/mL (≈ 0.147 µM)
Streptococcus pneumoniae [9]
  MIC: 0.25 µg/mL (≈ 0.293 µM)
Streptococcus pneumoniae [10]
  MIC: 0.25 µg/mL (≈ 0.293 µM)
Moraxella catarrhalis [11]
  MIC: 0.5 µg/mL (≈ 0.586 µM)
[13]
  MIC: 0.125 µg/mL (≈ 0.147 µM)
Moraxella catarrhalis [15]
  MIC: 0.5 µg/mL (≈ 0.586 µM)
Escherichia coli
  Activity: Active
[17]
  CC50 at 48 h: 27.4 µM
[18]
  MIC: 0.125 µg/mL (≈ 0.147 µM)
Streptococcus agalactiae [19]
  MIC: 4 µg/mL (≈ 4.69 µM)
Streptococcus pyogenes
  MIC: < 0.03 µg/mL
[20]
  MIC: 0.125 µg/mL (≈ 0.147 µM)
[21]
  MIC: 0.125 µg/mL (≈ 0.147 µM)

## CC[C@H]1OC(=O)[C@@](C)(F)C(=O)[C@H](C)[C@@H](O[C@@H]2O[C@H](C)C[C@H](N(C)C)[C@H]2O)[C@](C)(OC)C[C@@H](C)C(=O)[C@H](C)[C@H]2N(CCCOC(=O)Nc3ccc(F)cc3)C(=O)O[C@]12C
[1]
  MIC: < 0.03 µg/mL
Streptococcus agalactiae [22]
  MIC: < 0.03 µg/mL
Haemophilus influenzae [2]
  MIC: 4 µg/mL (≈ 4.84 µM)
Streptococcus pneumoniae [23]
  Ratio: <4
[24]
  Ratio: 4
Streptococcus pneumoniae [4]
  MIC: < 0.03 µg/mL
[5]
  MIC: 0.06 µg/mL (≈ 0.0726 µM)
Haemophilus influenzae [6]
  MIC: 2 µg/mL (≈ 2.42 µM)
[7]
  remaining at 1 h: 0.4%
[25]
  Ratio: 4
Moraxella catarrhalis [8]
  MIC: 0.03 µg/mL (≈ 0.0363 µM)
Streptococcus pneumoniae [9]
  MIC: < 0.03 µg/mL
Streptococcus pneumoniae [10]
  MIC: < 0.03 µg/mL
Moraxella catarrhalis [11]
  MIC: 0.03 µg/mL (≈ 0.0363 µM)
[12]
  remaining at 1 h: 95%
Streptococcus pneumoniae [26]
  Ratio: <4
[13]
  MIC: < 0.03 µg/mL
[27]
  Ratio: 4
[14]
  microsomal CLint: 183 µL/min/mg
[28]
  Ratio: 4
[29]
  Ratio: 4
Moraxella catarrhalis [15]
  MIC: 0.03 µg/mL (≈ 0.0363 µM)
[16]
  half-life: 3.8 min
[30]
  Ratio: 4
[17]
  CC50 at 48 h: 97.9 µM
[18]
  MIC: < 0.03 µg/mL
Streptococcus pneumoniae [31]
  Ratio: <4
Streptococcus agalactiae [19]
  MIC: 0.25 µg/mL (≈ 0.303 µM)
Streptococcus pyogenes
  MIC: < 0.03 µg/mL
[20]
  MIC: < 0.03 µg/mL
[21]
  MIC: < 0.03 µg/mL
